Experimental data reported in ChEMBL document CHEMBL1201862, “PubChem BioAssay data set” (2004).
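Dose response: 5 concentrations. Exposure: 48 h. Format: 96-well plates. Endpoint: linear interpolation; highest concentration if not reached. GI50 marks 50% less growth.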 Calls of active or inactive are those of the source. Rule as the data show it: active = GI50 up to about 1.1 µM and inactive = higher.

What was measured:
Assay in all cases: inhibition of tumour cell growth, NCI panel, 48 h
HOP-18 = test system: HOP-18
M19-MEL = test system: M19-MEL
DLD-1 = test system: DLD-1
SNB-78 = test system: SNB-78
KM-20L2 = test system: KM-20L2
DMS-273 = test system: DMS-273
XF498 = test system: XF498
DMS-114 = test system: DMS-114
RXF 631 = test system: RXF 631

SMILES | GI50 (HOP-18) | GI50 (M19-MEL) | GI50 (DLD-1) | GI50 (SNB-78) | GI50 (KM-20L2) | GI50 (DMS-273) | GI50 (XF498) | GI50 (DMS-114) | GI50 (RXF 631)
CCOC(=O)C(Cc1ccc([N+](=O)[O-])cc1)NC(=O)CC1c2ccccc2-c2ccccc21 (stereo not drawn) | > 100 µM (inactive) | 18.9 µM (inactive) | > 100 µM (inactive) | 23.8 µM (inactive) | > 100 µM (inactive) | 63.5 µM (inactive) | 20.8 µM (inactive) | 37.6 µM (inactive) | 
CCC(C)NC1=C(NC(C)=O)C(=O)c2ccccc2C1=O (stereo not drawn) | > 75 µM (inactive) | 48.3 µM (inactive) | 27.4 µM (inactive) | > 75 µM (inactive) | > 75 µM (inactive) | 27.6 µM (inactive) | > 75 µM (inactive) | 28.4 µM (inactive) | 
Cc1cn(Cc2ccccc2CCO)c(=S)[nH]c1=O | > 100 µM (inactive) | > 100 µM (inactive) |  |  | > 100 µM (inactive) | > 100 µM (inactive) | > 100 µM (inactive) | > 100 µM (inactive) | > 100 µM (inactive)
NC(=O)/C=C/c1c[nH]c2nccnc12 | 0.228 µM (active) | 3.27 µM (inactive) | 2.13 µM (inactive) |  | 0.0723 µM (active) | 3.52 µM (inactive) |  | 2.22 µM (inactive) | 
O=C(O)C1Cc2[nH]cnc2CN1 (stereo not drawn) | > 100 µM (inactive) | > 100 µM (inactive) | > 100 µM (inactive) | > 100 µM (inactive) | > 100 µM (inactive) | > 100 µM (inactive) |  | > 100 µM (inactive) | > 100 µM (inactive)
C=CCc1cc(OC)c2c(c1)C(O)CC(c1ccccc1)O2 (stereo not drawn) | > 100 µM (inactive) | > 100 µM (inactive) | > 100 µM (inactive) | > 100 µM (inactive) | 78.3 µM (inactive) | > 100 µM (inactive) |  | > 100 µM (inactive) | > 100 µM (inactive)
COc1ccc(N2C(=O)C3c4[nH]c5ccccc5c4C4CCCCCCC4C3C2=O)cc1 (stereo not drawn) | 1.57 µM (inactive) | 23.3 µM (inactive) | 11.2 µM (inactive) | 27.8 µM (inactive) | 28.8 µM (inactive) | 5.35 µM (inactive) | 10.4 µM (inactive) | 8.71 µM (inactive) | 
COc1cc(C2c3cc4c(cc3[C@@H](Nc3ccc(F)cc3)C3COC(=O)[C@H]23)OCO4)cc(OC)c1O (stereo partly drawn) | 10.6 µM (inactive) | 4.21 µM (inactive) | 3.79 µM (inactive) | 8.65 µM (inactive) | 2.08 µM (inactive) | 0.891 µM (active) | 2.95 µM (inactive) | 2.64 µM (inactive) | 
CC(C)(c1ccccc1)c1ccc(Oc2ccc(C#N)c(C#N)c2)cc1 | > 10 µM (inactive) | 79.1 µM (inactive) | > 10 µM (inactive) | > 10 µM (inactive) | > 10 µM (inactive) |  | > 10 µM (inactive) | 4.98 µM (inactive) | > 10 µM (inactive)
OC1c2ccccc2C2(O)C1C(c1ccccc1)C(c1ccccc1)C2(O)c1ccccc1 (stereo not drawn) | 14.9 µM (inactive) | 15.1 µM (inactive) |  |  | 8.83 µM (inactive) | 7.48 µM (inactive) |  | 13.6 µM (inactive) | 
Sc1nnc(C(c2ccccc2)c2ccccc2)[nH]1 |  | > 100 µM (inactive) | > 100 µM (inactive) |  | > 100 µM (inactive) | > 100 µM (inactive) | > 100 µM (inactive) | > 100 µM (inactive) | > 100 µM (inactive)
COC(=O)C1CC/C(=N\c2cccc(C(F)(F)F)c2)N1 (stereo not drawn) | > 100 µM (inactive) |  | > 100 µM (inactive) | > 100 µM (inactive) |  | > 100 µM (inactive) | > 100 µM (inactive) | > 100 µM (inactive) | > 100 µM (inactive)
CC1=C2C(=O)O[C@@H](c3ccoc3)[C@]2(C)CCC1 [FRAXINELLONE] | > 100 µM (inactive) | > 100 µM (inactive) | > 100 µM (inactive) | > 100 µM (inactive) | > 100 µM (inactive) |  | > 100 µM (inactive) | > 100 µM (inactive) | 
Cc1cc(C)nc(NS(=O)(=O)c2ccc(NC(=O)c3cccc4c(Nc5ccc(S(=O)(=O)Nc6nc(C)cc(C)n6)cc5)c5ccc(Cl)cc5nc34)cc2)n1 | > 100 µM (inactive) | 37.8 µM (inactive) | 33.7 µM (inactive) | 39.4 µM (inactive) | 40.5 µM (inactive) | 77.6 µM (inactive) | 23.1 µM (inactive) | 25.1 µM (inactive) | 
